Data from patent publication US7385395B2, “Apparatus for preparing a solution of a hyperpolarized noble gas for NMR and MRI analysis” (priority 1996, dated 2008).
Where two headings read alike, the source gives them in different places.

Tests used:
[1] = 129Xe spin-lattice relaxation time (T1) of hyperpolarized xenon in solution; format: physicochemical
Procedure: The design of the shaker used in the dissolution stage for xenon mixing and delivery is illustrated in FIG. 1. The shaker has a small sidearm which can be isolated from the main volume by a stopcock. The shaker is charged with a sample of either normal abundance or isotopically enriched xenon (80% ^129Xe, EG&G Mound, Miamisburg, Ohio, U.S.A.). Laser polarization is performed prior to admitting the xenon to the shaker. Briefly, approximately 5×10^−4 mol of 80. % isotopically enriched ^129Xe was optically pumped in a 30 cc cylindrical glass pumping cell (diameter≈30 mm). Before optical pumping, the cell was cleaned and coated with SURFASIL® (Pierce Chemical Co., Florence, Mass., U.S.A.); the cell was then evacuated to 10^−6 torr and loaded with one drop of melted rubidium metal in a dry nitrogen environment. Optical pumping was performed with a 1.3 W continuous-wave Ti:sapphire laser (794.7 nm) for 20-30 min, and the temperature of the cell was maintained at 60-80° C. by a temperature-controlled nitrogen gas stream. Typically, the apparatus produces xenon polarization levels in the range of 5-10%.
Following laser polarization, the polarized ^129Xe is frozen at liquid nitrogen temperatures in the sidearm in a magnetic field of approximately 50 mT provided by a small permanent magnet. The magnetic field is used in the freezing stage to prevent the decay of xenon polarization. The xenon is sublimated and then admitted into the solution. The small size of the shaker allows for the accumulation of several atmospheres of xenon pressure which aids in increasing the xenon concentration in the solution. During the dissolution procedure, the vessel is vigorously shaken to help dissolve the xenon gas. The resulting xenon solution is extracted with a syringe through a high-pressure rubber septum. In those examples below wherein a solution NMR study is performed on an in vitro sample, the xenon is immediately injected into an NMR tube which contains the sample to be studied.
Solutions of hyperpolarized ^129Xe in partially deuterated benzene (25% C6D5H, 75% C6D6) were prepared as described above for saline solutions of ^129Xe with the exception that the shaker was charged with the benzene solution rather than saline. Typically, 4×10^−4 mol of enriched ^129Xe (80%, EG&G Mound) were used in one experiment at a pressure of 1 atm. ^129Xe NMR was performed at 51 MHz on a Quest 4300 spectrometer (Nalorac Cryogenics, Martinez, Calif., U.S.A.) with a home built probe and a tipping angle of 3°. ^1H NMR was performed at 185 MHz with a home built probe and a tipping angle of 3°.
Hyperpolarized xenon and mixtures of hyperpolarized xenon and cyclodextrins were prepared generally as discussed above. SPINOE signals of 0.05 M cyclodextrin solutions in deuterated DMSO were measured as described above in Example 8.

human blood = experiment: 129Xe NMR relaxation and signal of xenon delivered to human blood / red blood cell sample in vitro; format: in vitro ADME
Procedure: The portion removed accounted for approximately 30% of the total volume of the blood sample. Following removal of a portion of the plasma, xenon saturated saline (1 mL) was injected into the red blood cell (RBC) sample (1 mL) and the ^129Xe NMR was measured. The NMR spectra were measured on a Bruker AM-400 spectrometer.
By using short rf pulses of small tipping angle, ^129Xe NMR spectra were acquired as a function of time after injection of the xenon/saline mixture into the blood. NMR spectra were measured on a Bruker AM-400 spectrometer.
A solution of hyperpolarized xenon in […] ® was prepared in the same manner as described for the saline solution of hyperpolarized xenon, however, the shaker was charged with […] ® rather than saline. […] The […] ® solution was charged with laser polarized ^129Xe and an aliquot (1 mL) of this solution was added to human blood (1 mL). The spectra were obtained on a Bruker AM-400 spectrometer.
A solution of hyperpolarized xenon in FLUOSOL® was prepared in the same manner as described for the saline solution of hyperpolarized xenon, however, the shaker was charged with FLUOSOL® rather than saline. The FLUOSOL® solution was charged with laser polarized ^129Xe and an aliquot (1 mL) of this solution was added to human blood (1 mL). The spectra were obtained on a Bruker AM-400 spectrometer.

red blood cell (RBC) [2] = tested on: red blood cell (RBC)
Procedure: NMR spectra were measured on a CMX Infinity spectrometer (Chemamagnetics-Otsuka Electronics, Fort Collins, Colo., U.S.A.) at a magnetic field of 4.3 Tesla.
The xenon exchange rate between the extracellular and intracellular compartments of a RBC/saline/plasma sample was measured by selectively inverting the xenon saline/plasma NMR line and observing the recovery of the two signals. The selective inversion was achieved by an amplitude-modulated Gaussian pulse of 1 ms duration centered at the frequency of the saline/plasma signal. […] A field gradient pulse of 1 ms was applied after the inversion pulse to dephase any components of the transverse magnetization. After the inversion pulse, xenon spectra were taken at fixed time intervals using a small tipping angle (20°). Following the addition of the xenon/saline solution into the RBC sample, a delay of 3 seconds before the application of the inversion pulse insured that the xenon/RBC system was well mixed and equilibrated.
[formula] where τRBC and τp1 are residence time constants for xenon in the RBC and saline/plasma, and 1/τ=1/τRBC+1/τp1. S^oRBC and S^op1 are the initial intensities for the RBC and the plasma/saline components, respectively, immediately after the inversion pulse. The effect of the spin-lattice relaxation is neglected since τ<<T1, making S^oRBC+S^op1 a constant during the exchange process.

[3] = rat, in vivo
Procedure: Male rats weighing 200-250 grams were anesthetized by intramuscular injection of ketamine/xylazine/acepromazine (30/3/0.6 mg/kg). Supplemental intramuscular doses were administered as needed to maintain anesthesia. A venous catheter was placed into a tail vein, and the receiver/transmitter surface coil was placed over the heart and liver (FIG. 18). Acquisitions began at start of the injection. Prior to each experiment the rat was placed in lateral recumbency into the magnet. At the conclusion of each experiment, the catheter was removed and the rat was returned to its cage to recover from anesthesia.
The ^129Xe NMR spectra were obtained on a home-built NMR spectrometer interfaced with a Bruker 2.35 T magnet (xenon frequency: 27.68 MHz, bore diameter: 25 cm). […] For the spectroscopy experiment, spectra were obtained every second (pulse angle: ≈20°).
The rats, anesthesia and apparatus were as described in Example 10, above.

[4] = in saline; STP volume of xenon dissolved in 1 liter of liquid at 1 atm gas pressure; cited from earlier work
red blood cell (RBC) [5] = conditions: room temperature; Herbst et al. 1989; cited from earlier work
[6] = selective inversion experiment, 4.3 Tesla

Row | SMILES | 129Xe T1 ([1]; 0.1 M p-nitrotoluene in deuterated benzene) [s] | 129Xe T1 ([1]; 0.1 M α-cyclodextrin solution in deuterated DMSO) [s] | T1 of xenon ([1]; H2O/saline (0.9% NaCl), 9.4 T) [s] | xenon T1 ([1]; in INTRALIPID solution) [s] | observed spin-lattice relaxation time of 129Xe in solution ([1]; normal benzene, combination of gas and solution relaxation times) [s] | observed spin-lattice relaxation time of 129Xe in solution ([1]; partially deuterated benzene (25% C6D5H, 75% C6D6)) [s] | T1 of xenon ([1]; saline made with D2O) | T1 of the narrow peak (human blood; xenon/FLUOSOL solution 1 mL added to human blood 1 mL, 216 ppm RBC peak) [s] | T1 decay time of the signal at 194 ppm (human blood; xenon/INTRALIPID solution 1 mL added to human blood 1 mL) [s] | T1 decay time relative to xenon in saline water/blood mixture (human blood; xenon/INTRALIPID solution in blood, 194 ppm signal) | equilibrium distribution of the integral of the two peaks (RBC vs saline/plasma) (red blood cell (RBC) [2]) | ratio of integrated intensities of broad (FLUOSOL) and narrow (RBC) peaks (red blood cell (RBC) [2]) | ratio of peak of xenon in INTRALIPID solution to peak of intracellular xenon (red blood cell (RBC) [2]) | residence time constant in saline/plasma, τpl (red blood cell (RBC) [2]; [6]) [ms] | residence time constant in the RBC, τRBC (red blood cell (RBC) [2]; [6]) [ms] | exchange time constant τ (1/τ=1/τRBC+1/τpl) (red blood cell (RBC) [2]; selective inversion of saline/plasma line, 4.3 Tesla) [ms] | time of maximum xenon signal intensity after start of injection [3] [s] | Ostwald coefficient [4] | residence time constant in the RBC, τRBC (red blood cell (RBC) [5]) [ms]
1 | [Xe] [xenon] | > 500 | 20 | 66 | 40 ± 3 | ~200 | ~1000 | ≈ 1000 s | 13 ± 1 | 16 | approximately 3 fold | approximately 50% | approximately 3 | approximately 6:1 | 29.1 ± 2 | 20.4 ± 2 | 12.0 ± 1 | 7 | 0.0926 | 
2 | O [water] |  |  |  |  |  |  |  |  |  |  |  |  |  |  |  |  |  |  | 12 ± 2
